The nature of data set [1]: Disposition of Hg. The conditions noted are these: for renal burden of Hg (total renal mass): HgCl2 0.5 μmol/kg (+1.25 μmol/kg Cys) or CH3HgCl 5 μmol/kg (+12.5 μmol/kg Cys); for administered dose present in blood / renal burden of Hg: rats, strain not stated (discussion); for cortical concentration of Hg, TR− rats compared with corresponding control rats / cortical concentration of Hg, compared with rats of the same strain exposed to HgCl2 or CH3HgCl alone: renal cortex; for distribution of Hg in blood between plasma and cellular components: each group of rats.

For data set [2], the target named is human MRP2 (Homo sapiens, UniProt Q92887). In kind it is in vitro ADME. The following applies: 37°C, inside-out Sf9 membrane vesicles.
Setting [3] is: both control and TR− rats, 24 h, data not shown.
Where [4] appears, read: control (Wistar) rats, i.v., 24 h.

Like-named read-outs stand apart in the source and are kept apart here.

Sequence of human MRP2 (Q92887 whole entry): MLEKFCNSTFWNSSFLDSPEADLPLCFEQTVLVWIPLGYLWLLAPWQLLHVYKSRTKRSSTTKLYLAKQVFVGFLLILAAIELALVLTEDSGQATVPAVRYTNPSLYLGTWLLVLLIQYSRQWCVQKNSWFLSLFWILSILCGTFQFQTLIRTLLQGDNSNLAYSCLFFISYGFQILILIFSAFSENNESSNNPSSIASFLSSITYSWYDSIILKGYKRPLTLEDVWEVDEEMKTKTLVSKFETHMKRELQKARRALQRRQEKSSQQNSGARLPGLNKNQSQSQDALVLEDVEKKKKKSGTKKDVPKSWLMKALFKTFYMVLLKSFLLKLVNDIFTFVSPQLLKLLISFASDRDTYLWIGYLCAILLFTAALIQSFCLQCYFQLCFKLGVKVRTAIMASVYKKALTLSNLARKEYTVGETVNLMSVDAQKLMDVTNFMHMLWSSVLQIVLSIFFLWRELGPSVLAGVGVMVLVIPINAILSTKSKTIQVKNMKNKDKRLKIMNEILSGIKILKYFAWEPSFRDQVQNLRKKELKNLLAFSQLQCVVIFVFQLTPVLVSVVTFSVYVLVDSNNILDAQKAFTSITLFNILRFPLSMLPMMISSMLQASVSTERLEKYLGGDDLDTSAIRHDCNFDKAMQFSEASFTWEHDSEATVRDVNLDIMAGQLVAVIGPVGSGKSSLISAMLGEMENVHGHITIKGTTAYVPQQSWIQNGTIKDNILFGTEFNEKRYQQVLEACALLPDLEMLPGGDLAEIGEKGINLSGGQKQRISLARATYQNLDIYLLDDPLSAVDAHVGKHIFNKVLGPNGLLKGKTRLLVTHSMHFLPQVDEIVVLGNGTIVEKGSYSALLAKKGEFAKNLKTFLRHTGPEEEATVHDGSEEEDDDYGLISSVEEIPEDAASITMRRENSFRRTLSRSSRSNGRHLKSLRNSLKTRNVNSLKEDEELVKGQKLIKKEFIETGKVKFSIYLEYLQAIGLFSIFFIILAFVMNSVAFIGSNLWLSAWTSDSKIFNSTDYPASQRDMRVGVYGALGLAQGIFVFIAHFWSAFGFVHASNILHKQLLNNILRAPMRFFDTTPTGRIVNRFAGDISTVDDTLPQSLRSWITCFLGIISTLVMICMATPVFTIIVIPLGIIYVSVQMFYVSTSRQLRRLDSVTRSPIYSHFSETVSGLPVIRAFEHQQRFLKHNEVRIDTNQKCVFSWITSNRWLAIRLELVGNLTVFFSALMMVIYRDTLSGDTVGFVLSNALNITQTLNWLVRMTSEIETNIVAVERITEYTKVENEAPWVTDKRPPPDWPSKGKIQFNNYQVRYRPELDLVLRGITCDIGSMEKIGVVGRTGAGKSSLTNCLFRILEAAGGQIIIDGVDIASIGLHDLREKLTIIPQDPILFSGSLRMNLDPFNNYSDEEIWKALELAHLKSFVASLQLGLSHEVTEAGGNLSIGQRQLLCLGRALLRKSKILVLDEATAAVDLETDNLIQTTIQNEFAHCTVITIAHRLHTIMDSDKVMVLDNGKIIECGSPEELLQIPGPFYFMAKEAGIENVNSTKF

Regarding `[CH3][Hg][Cl]` [CH3HgCl, methylmercuric chloride], in data set [1] (TR− rats, i.v., 24 h), the “hepatic burden of Hg” value is given as “about 14 % of the dose” and the “renal burden of Hg (total renal mass)” value was “approximately 5 % of the administered dose”. Further, in data set [1] (setting [3]), the “hematological burden of Hg associated with cellular components of blood” value is on record as “approximately 99%” and the “hematological burden of Hg present in plasma” value is on record as approximately 1%. Besides, in data set [1] (setting [4]), the “renal burden of Hg (total renal mass)” value is “approximately 5 % of the administered dose”. Also, the “urinary excretion of Hg in 24 h” value in data set [1] (control rats, i.v.) is “approximately 0.5 % of the administered dose”. For the same compound, in data set [1] (i.v., 24 h), the “amount of Hg in blood, TR− rats compared with corresponding control rats” value is “did not significantly alter”; the “hepatic burden of Hg, TR− rats compared with corresponding control rats” value was “two-fold greater”; the “renal burden of Hg, TR− rats compared with corresponding control rats” value is “No significant differences”; the “urinary excretion of Hg, control rats compared with corresponding TR− rats” value is on record as “not significantly different”. Moreover, in data set [1] (i.v., 24 h), the “administered dose present in blood” value is recorded as “over 40%”; the “renal burden of Hg” value is “about 5 % of the dose”; the “cortical concentration of Hg, TR− rats compared with corresponding control rats” value is given as “similar”.

Turning to `N[C@@H](CS)C(=O)[O-].N[C@@H](CS)C(=O)[O-].[Hg+2]` [Cys-S-Hg-S-Cys, Cysteine-S-conjugate of HgCl2], in data set [1] (TR− rats, i.v., 24 h), the “concentration of Hg in the outer stripe of the outer medulla, compared with rats of the same strain exposed to HgCl2 or CH3HgCl alone” value was “not significantly different”; the “fecal excretion of Hg, compared with rats of the same strain exposed to HgCl2 or CH3HgCl alone” value is reported as “not significantly different”; the “hematological burden of Hg, compared with rats of the same strain exposed to HgCl2 or CH3HgCl alone” value is given as “significantly lower”; the “hepatic burden of Hg, compared with rats of the same strain exposed to HgCl2 or CH3HgCl alone” value was “not significantly different”. Further, in data set [1] (TR− rats, i.v., 24 h), the “renal burden of Hg, compared with rats of the same strain exposed to HgCl2 or CH3HgCl alone” value is on record as “significantly greater than that of corresponding rats treated with HgCl2”; the “urinary excretion of Hg, compared with rats of the same strain exposed to HgCl2 or CH3HgCl alone” value is given as “not significantly different”; the “cortical concentration of Hg, compared with rats of the same strain exposed to HgCl2 or CH3HgCl alone” value was “significant increase”. In addition, in data set [1] (control rats, i.v., 24 h), the “concentration of Hg in the outer stripe of the outer medulla, compared with rats of the same strain exposed to HgCl2 or CH3HgCl alone” value is “not significantly different”; the “fecal excretion of Hg, compared with rats of the same strain exposed to HgCl2 or CH3HgCl alone” value is “significantly greater than that of corresponding rats exposed to HgCl2 alone”; the “hepatic burden of Hg” value is reported as ~5 % of the administered dose; the “hepatic burden of Hg, compared with rats of the same strain exposed to HgCl2 or CH3HgCl alone” value is reported as “increased significantly”. In data set [1] (control rats, i.v., 24 h), the “renal burden of Hg, compared with rats of the same strain exposed to HgCl2 or CH3HgCl alone” value is “significantly greater than that of corresponding rats treated with HgCl2”; the “urinary excretion of Hg, compared with rats of the same strain exposed to HgCl2 or CH3HgCl alone” value is “not significantly different”; the “cortical concentration of Hg, compared with rats of the same strain exposed to HgCl2 or CH3HgCl alone” value is reported as “significant increase”. The “distribution of Hg in blood between plasma and cellular components” value in data set [1] (24 h, data not shown) was “distributed evenly between plasma and cellular components”. Further, in data set [1] (i.v., 24 h), the “amount of Hg in blood, TR− rats compared with corresponding control rats” value is reported as “slightly, but not significantly, greater”; the “renal burden of Hg, TR− rats compared with corresponding control rats” value is given as “more Hg was detected in kidneys of TR^− rats”; the “renal burden of Hg” value is recorded as ~70 % of the dose; the “cortical concentration of Hg, TR− rats compared with corresponding control rats” value is on record as “tended to be greater”. The “uptake into MRP2 vesicles compared with control vesicles” value in data set [2] (5 μM mercuric conjugate) is reported as “significantly greater in MRP2 vesicles than in control vesicles”.

`[Cl][Hg][Cl]` [HgCl2, mercuric chloride]: in data set [1] (TR− rats, i.v.), the “fecal excretion of Hg after 24 h” value is recorded as “approximately 1.5 % of the administered dose” and the “urinary excretion of Hg in 24 h” value is “about 1.5 % of the administered dose”. Further, in data set [1] (TR− rats, i.v., 24 h), the “hepatic burden of Hg” value is ~6.5 % of the dose and the “renal burden of Hg (total renal mass)” value was 60 % of the administered dose. For the same compound, the “renal burden of Hg (total renal mass)” value in data set [1] (setting [4]) is “approximately 50 % of the administered dose”. In data set [1] (control rats, i.v.), the “fecal excretion of Hg after 24 h” value was “approximately 3 % of the administered dose” and the “urinary excretion of Hg in 24 h” value was “approximately 4 % of the administered dose”. Besides, in data set [1] (control rats, i.v., 24 h), the “hepatic burden of Hg” value is “approximately 3.5 % of the administered dose”. In data set [1] (24 h, data not shown), the “distribution of Hg in blood between plasma and cellular components” value is “distributed evenly between plasma and cellular components”. In data set [1] (i.v., 24 h), the “amount of Hg in blood, TR− rats compared with corresponding control rats” value is given as “significantly greater”; the “renal burden of Hg, TR− rats compared with corresponding control rats” value is “significantly different than that of corresponding control (Wistar) rats”; the “administered dose present in blood” value was 1-2%; the “renal burden of Hg” value was “approximately 50 % of the dose”. Further, the “cortical concentration of Hg, TR− rats compared with corresponding control rats” value in data set [1] (i.v., 24 h) is “tended to be greater”.

As to `CCCCC/C=C\C\C=C/C=C/C=C/[C@@H](SC[C@H](NC(=O)CC[C@H](N)C(=O)O)C(=O)NCC(=O)O)[C@@H](O)CCCC(=O)O` [LTC4, Leukotriene C4, reference compound], in data set [2] (50 nM LTC4, 2.5 min), the “uptake into MRP2 vesicles compared with control vesicles” value is listed as “significantly greater in MRP2 vesicles than in control vesicles”.

For “Cysteine-S-conjugate of CH3HgCl [Cys-S-CH3Hg]”, in data set [1] (TR− rats, i.v., 24 h), the “concentration of Hg in the outer stripe of the outer medulla, compared with rats of the same strain exposed to HgCl2 or CH3HgCl alone” value is listed as “significantly greater” and the “cortical concentration of Hg, compared with rats of the same strain exposed to HgCl2 or CH3HgCl alone” value is reported as “significantly greater”. Further, in data set [1] (control rats, i.v., 24 h), the “concentration of Hg in the outer stripe of the outer medulla, compared with rats of the same strain exposed to HgCl2 or CH3HgCl alone” value is listed as “significantly greater” and the “cortical concentration of Hg, compared with rats of the same strain exposed to HgCl2 or CH3HgCl alone” value is reported as “significantly greater”. For the same compound, the “cortical concentration of Hg, TR− rats compared with corresponding control rats” value in data set [1] (i.v., 24 h) is listed as “no significant difference”. Moreover, the “uptake into MRP2 vesicles compared with control vesicles” value in data set [2] (5 μM mercuric conjugate) is listed as “significantly greater in MRP2 vesicles than in control vesicles”.

The values are drawn from PMC3028519 (Toxicology and applied pharmacology, 2010).
